Data taken from ChEMBL document CHEMBL2177104, “Identification of antitubercular benzothiazinone compounds by ligand-based design” (J Med Chem, 2012).
Converted amounts (≈) assume the structure as drawn. The source made the active and inactive calls. The calls are words filed in the database; no cut-off is given here.

Tests used:
[1] = Kinetic solubility of the compound at pH 7.4; assay type: physicochemical; conditions: buffer; for solubility kinetic: read-out: Kinetic_solubility
Liver microsomes = test: Metabolic stability in human liver microsomes; assay type: ADME, Microsome
[2] = Cytotoxicity against human HeLa cells after 72 hrs by methylene blue staining; assay type: cell-based
[3] = Cytotoxicity against human HEK293 cells after 24 hrs by MTT assay; assay type: cell-based
[4] = tested on: Mycolicibacterium smegmatis; test: Antimycobacterial activity against Mycobacterium smegmatis 700084 after 48 hrs by broth microdilution assay; assay type: functional; conditions: Mycolicibacterium smegmatis, 700084, 48 h
Liver = test: Metabolic stability in mouse liver microsomes; assay type: ADME, Microsome
Plasma [5] = test: Metabolic stability in human plasma; assay type: ADME, cell-free
[6] = Cytotoxicity against human HepG2 cells after 24 hrs by MTT assay; assay type: cell-based
[7] = Chemical stability in buffer; assay type: physicochemical
[8] = Antiproliferative activity against human K562 cells after 72 hrs by electronic cell analysis; assay type: cell-based
[9] = tested on: Mycolicibacterium fortuitum; test: Antimycobacterial activity against Mycobacterium fortuitum B; assay type: functional
Plasma [10] = test: Metabolic stability in mouse plasma; assay type: ADME, cell-free
[11] = Antiproliferative activity against human HUVEC cells after 72 hrs by methylene blue staining; assay type: cell-based
[12] = Therapeutic index, ratio of CC50 for human HeLa cells to MIC for Mycobacterium smegmatis 700084; assay type: cell-based; conditions: read-out: TI
[13] = Therapeutic index, ratio of GI50 for human HUVEC cells to MIC for Mycobacterium smegmatis 700084; assay type: cell-based; conditions: read-out: TI
Mycolicibacterium aurum = test: Antimycobacterial activity against Mycobacterium aurum SB66; assay type: functional, organism-based
[14] = tested on: Mycobacterium tuberculosis; test: Antimycobacterial activity against Mycobacterium tuberculosis H37Rv expressing GFP; assay type: functional
[15] = Therapeutic index, ratio of GI50 for human K562 cells to MIC for Mycobacterium smegmatis 700084; assay type: cell-based; conditions: read-out: TI
[16] = tested on: Mycobacterium tuberculosis; test: Ratio of isoniazid MIC to compound MIC for Mycobacterium tuberculosis H37Rv; assay type: functional
[17] = tested on: Mycolicibacterium smegmatis; test: Ratio of MIC for Mycobacterium smegmatis 700084 in […] to MIC for Mycobacterium smegmatis 700084 in MHB medium; assay type: functional

Compound `Cc1ccc(CNc2nc(=O)c3cc(C(F)(F)F)cc([N+](=O)[O-])c3s2)o1` has a solubility kinetic [1] of 1.82 µM (≈ 0.701 µg/mL).
For `Cc1ccc(CNc2nc(=O)c3cc(C(F)(F)F)cc([N+](=O)[O-])c3s2)n1C`, the Stability (Liver microsomes) was 28%, the CC50 at 72 h [2] was 48 µM and the CC50 at 24 h [3] was > 10 µM. The MIC [4] was 0.125 mg/L (≈ 0.314 µM), the Stability (Liver) was 37% and the Stability (Plasma [5]) was 108%. For the same compound, the CC50 at 24 h [6] was > 10 µM, the Stability [7] was 14% and the GI50 at 72 h [8] was 21 µM. For the same compound, the MIC [9] was 0.05 mg/L (≈ 0.126 µM), the Stability (Plasma [10]) was 93% and the GI50 at 72 h [11] was 17 µM.
Compound `O=c1nc(NCc2ccco2)sc2c([N+](=O)[O-])cc(C(F)(F)F)cc12` has a solubility kinetic [1] of 1.63 µM (≈ 0.605 µg/mL).
For `C[C@H]1COC2(CCN(c3nc(=O)c4cc(C(F)(F)F)cc([N+](=O)[O-])c4s3)CC2)O1` [BTZ-043], the selectivity ratio [12] was > 6250, the Stability (Liver microsomes) was 98% and the CC50 at 72 h [2] was > 50 µM. For the same compound, the CC50 at 24 h [3] was > 10 µM, the selectivity ratio [13] was 1190 and the MIC [4] was 0.008 mg/L (≈ 0.0185 µM). The Stability (Liver) was 45%, the Activity (Mycolicibacterium aurum) was “inactive” and the Stability (Plasma [5]) was 107%. The CC50 at 24 h [6] was > 10 µM, the Stability [7] was 98% and the MIC [14] was 0.001 mg/L (≈ 0.00232 µM). It also gave a selectivity ratio [15] of 1190, a GI50 at 72 h [8] of 11 µM and an MIC [9] of 0.00156 mg/L (≈ 0.00362 µM). The solubility kinetic [1] was 6.8 µM (≈ 2.93 µg/mL), the Stability (Plasma [10]) was 97% and the GI50 at 72 h [11] was 8 µM. The Ratio [16] was 20.
With `O=c1nc(N2CCC(c3ccccc3)CC2)sc2c([N+](=O)[O-])cc(C(F)(F)F)cc12` the selectivity ratio [12] was > 12500, the Stability (Liver microsomes) was 120% and the CC50 at 72 h [2] was > 50 µM. For the same compound, the CC50 at 24 h [3] was > 10 µM, the selectivity ratio [13] was > 12500 and the MIC [4] was 0.004 mg/L (≈ 0.00919 µM). It also gave a Ratio [17] of 3, a Stability (Liver) of 75% and a Stability (Plasma [5]) of 96%. The CC50 at 24 h [6] was > 10 µM, the Stability [7] was 82% and the selectivity ratio [15] was > 12500. For the same compound, the GI50 at 72 h [8] was > 50 µM, the MIC [9] was 0.0125 mg/L (≈ 0.0287 µM) and the solubility kinetic [1] was 0.06 µM (≈ 0.0261 µg/mL). The Stability (Plasma [10]) was 71% and the GI50 at 72 h [11] was > 50 µM.
In the case of `COC(=O)[C@@H]1OC2(CCN(c3nc(=O)c4cc(C(F)(F)F)cc([N+](=O)[O-])c4s3)CC2)O[C@H]1c1ccccc1`, the CC50 at 72 h [2] is reported as > 50 µM, the CC50 at 24 h [3] is reported as > 10 µM and the MIC [4] is reported as 0.015 mg/L (≈ 0.0272 µM). The Stability (Plasma [5]) was 90%, the CC50 at 24 h [6] was > 10 µM and the Stability [7] was 82%. For the same compound, the GI50 at 72 h [8] was > 50 µM, the MIC [9] was 0.00625 mg/L (≈ 0.0113 µM) and the Stability (Plasma [10]) was 88%. For the same compound, the GI50 at 72 h [11] was > 50 µM.
For `CCN(CCN(C)C)c1nc(=O)c2cc(C(F)(F)F)cc([N+](=O)[O-])c2s1`, the solubility kinetic [1] was 10.6 µM (≈ 4.14 µg/mL).
For `CN(C(=O)CN1CCN(c2nc(=O)c3cc(C(F)(F)F)cc([N+](=O)[O-])c3s2)CC1)c1ccccc1`, the Stability (Liver microsomes) was 13%, the CC50 at 72 h [2] was 39 µM and the CC50 at 24 h [3] was > 10 µM. The MIC [4] was 0.015 mg/L (≈ 0.0296 µM), the Stability (Liver) was 2% and the Stability (Plasma [5]) was 95%. The CC50 at 24 h [6] was > 10 µM, the Stability [7] was 78% and the GI50 at 72 h [8] was 30 µM. For the same compound, the MIC [9] was 0.0125 mg/L (≈ 0.0246 µM), the solubility kinetic [1] was 11.9 µM (≈ 6.04 µg/mL) and the Stability (Plasma [10]) was 115%. It also gave a GI50 at 72 h [11] of 18 µM.
In the case of `O=c1nc(NCc2ccc3c(c2)OCCO3)sc2c([N+](=O)[O-])cc(C(F)(F)F)cc12`, the Stability (Liver microsomes) is reported as 43%, the CC50 at 72 h [2] is reported as 41 µM and the CC50 at 24 h [3] is reported as > 10 µM. It also gave an MIC [4] of 0.004 mg/L (≈ 0.0091 µM), a Stability (Liver) of 32% and a Stability (Plasma [5]) of 86%. For the same compound, the CC50 at 24 h [6] was > 10 µM, the Stability [7] was 91% and the GI50 at 72 h [8] was 37 µM. It also gave an MIC [9] of 0.012 mg/L (≈ 0.0273 µM), a Stability (Plasma [10]) of 114% and a GI50 at 72 h [11] of 20 µM.
With `CN(c1nc(=O)c2cc(C(F)(F)F)cc([N+](=O)[O-])c2s1)[C@H]1CCN(Cc2ccccc2)C1` the Stability (Liver microsomes) was 6%, the CC50 at 72 h [2] was 38 µM and the CC50 at 24 h [3] was > 10 µM. For the same compound, the MIC [4] was 0.004 mg/L (≈ 0.00861 µM), the Stability (Liver) was 7% and the Stability (Plasma [5]) was 92%. For the same compound, the CC50 at 24 h [6] was > 10 µM, the Stability [7] was 96% and the GI50 at 72 h [8] was 30 µM. It also gave a solubility kinetic [1] of 2.97 µM (≈ 1.38 µg/mL), a Stability (Plasma [10]) of 114% and a GI50 at 72 h [11] of 18 µM.
For `CN(C)C(=O)C1CCN(c2nc(=O)c3cc(C(F)(F)F)cc([N+](=O)[O-])c3s2)CC1`, the Kinetic_solubility [1] was “soluble”.
In the case of `COC(=O)C1CN(c2nc(=O)c3cc(C(F)(F)F)cc([N+](=O)[O-])c3s2)CCC12OC[C@H](C)O2` (some centres undefined), the Stability (Liver microsomes) is reported as 81%, the CC50 at 72 h [2] is reported as 36 µM and the CC50 at 24 h [3] is reported as > 10 µM. It also gave an MIC [4] of 0.015 mg/L (≈ 0.0306 µM), a Stability (Liver) of 29% and a Stability (Plasma [5]) of 51%. For the same compound, the CC50 at 24 h [6] was > 10 µM, the Stability [7] was 98% and the GI50 at 72 h [8] was 22 µM. The MIC [9] was 0.0125 mg/L (≈ 0.0255 µM), the Stability (Plasma [10]) was 56% and the GI50 at 72 h [11] was 16 µM.
For `CCCOCC1COC2(CCN(c3nc(=O)c4cc(C(F)(F)F)cc([N+](=O)[O-])c4s3)CC2)O1` (centres undefined), the Stability (Liver microsomes) was 6%, the CC50 at 72 h [2] was 43 µM and the CC50 at 24 h [3] was > 10 µM. For the same compound, the MIC [4] was 0.004 mg/L (≈ 0.00817 µM), the Stability (Liver) was 9% and the Stability (Plasma [5]) was 98%. The CC50 at 24 h [6] was > 10 µM, the Stability [7] was 99% and the GI50 at 72 h [8] was > 50 µM. The MIC [9] was 0.0031 mg/L (≈ 0.00633 µM), the Stability (Plasma [10]) was 103% and the GI50 at 72 h [11] was > 50 µM.
With `O=c1nc(N2CCC(F)(F)CC2)sc2c([N+](=O)[O-])cc(C(F)(F)F)cc12` the Stability (Liver microsomes) was 61%, the CC50 at 24 h [3] was > 10 µM and the MIC [4] was 0.25 mg/L (≈ 0.632 µM). The Stability (Liver) was 80%, the Stability (Plasma [5]) was 64% and the CC50 at 24 h [6] was > 10 µM. For the same compound, the Stability [7] was 101%, the MIC [9] was > 0.1 mg/L and the solubility kinetic [1] was 8.1 µM (≈ 3.2 µg/mL). For the same compound, the Stability (Plasma [10]) was 92%.
For `CN(C)c1ccc(CN(C)c2nc(=O)c3cc(C(F)(F)F)cc([N+](=O)[O-])c3s2)cc1`, the selectivity ratio [12] was > 50000, the Stability (Liver microsomes) was 6% and the CC50 at 72 h [2] was > 50 µM. The CC50 at 24 h [3] was > 10 µM, the selectivity ratio [13] was > 50000 and the MIC [4] was 0.001 mg/L (≈ 0.00228 µM). The Stability (Liver) was 8%, the Stability (Plasma [5]) was 90% and the CC50 at 24 h [6] was > 10 µM. For the same compound, the Stability [7] was 95%, the selectivity ratio [15] was > 50000 and the GI50 at 72 h [8] was > 50 µM. For the same compound, the MIC [9] was 0.00625 mg/L (≈ 0.0143 µM), the Stability (Plasma [10]) was 104% and the GI50 at 72 h [11] was > 50 µM.
Compound `O=C(c1ccoc1)N1CCN(c2nc(=O)c3cc(C(F)(F)F)cc([N+](=O)[O-])c3s2)CC1` has a solubility kinetic [1] of 21.8 µM (≈ 9.91 µg/mL).
With `CN(Cc1ccoc1)c1nc(=O)c2cc(C(F)(F)F)cc([N+](=O)[O-])c2s1` the Kinetic_solubility [1] was “soluble”.
With `O=c1nc(N2CCN(c3nccs3)CC2)sc2c([N+](=O)[O-])cc(C(F)(F)F)cc12` the Stability (Liver microsomes) was 42%, the CC50 at 24 h [3] was > 10 µM and the MIC [4] was 0.25 mg/L (≈ 0.564 µM). The Stability (Liver) was 13%, the Stability (Plasma [5]) was 99% and the CC50 at 24 h [6] was > 10 µM. The Stability [7] was 98%, the MIC [9] was 0.025 mg/L (≈ 0.0564 µM) and the Stability (Plasma [10]) was 111%.
